From ChEMBL document CHEMBL4715913, “Discovery of benzo[f]pyrido[4,3-b][1,4]oxazepin-10-one derivatives as orally available bromodomain and extra-terminal domain (BET) inhibitors with efficacy in an in vivo psoriatic animal model” (Bioorg Med Chem, 2021)
The source made the active and inactive calls. No cut-off for these calls is given here.

How the values were obtained:
[1] = target: T1, Bromodomain testis-specific protein (Homo sapiens, UniProt Q58F21); test: Binding affinity to human partial length BRDT-BD2 (K250 to E382 residues) expressed in bacterial expression system by BROMOscan method
[2] = target: T1, Bromodomain testis-specific protein; test: Binding affinity to human partial length BRDT-BD1 (N21 to E137 residues) expressed in bacterial expression system by BROMOscan method
CREB-binding protein = CREB-binding protein (Homo sapiens, UniProt Q92793); test: Binding affinity to human partial length CREBBP (R1081 to G1197 residues) expressed in bacterial expression system by BROMOscan method
CREB-binding protein, sequence (Q92793 whole entry, the tested form may be a part): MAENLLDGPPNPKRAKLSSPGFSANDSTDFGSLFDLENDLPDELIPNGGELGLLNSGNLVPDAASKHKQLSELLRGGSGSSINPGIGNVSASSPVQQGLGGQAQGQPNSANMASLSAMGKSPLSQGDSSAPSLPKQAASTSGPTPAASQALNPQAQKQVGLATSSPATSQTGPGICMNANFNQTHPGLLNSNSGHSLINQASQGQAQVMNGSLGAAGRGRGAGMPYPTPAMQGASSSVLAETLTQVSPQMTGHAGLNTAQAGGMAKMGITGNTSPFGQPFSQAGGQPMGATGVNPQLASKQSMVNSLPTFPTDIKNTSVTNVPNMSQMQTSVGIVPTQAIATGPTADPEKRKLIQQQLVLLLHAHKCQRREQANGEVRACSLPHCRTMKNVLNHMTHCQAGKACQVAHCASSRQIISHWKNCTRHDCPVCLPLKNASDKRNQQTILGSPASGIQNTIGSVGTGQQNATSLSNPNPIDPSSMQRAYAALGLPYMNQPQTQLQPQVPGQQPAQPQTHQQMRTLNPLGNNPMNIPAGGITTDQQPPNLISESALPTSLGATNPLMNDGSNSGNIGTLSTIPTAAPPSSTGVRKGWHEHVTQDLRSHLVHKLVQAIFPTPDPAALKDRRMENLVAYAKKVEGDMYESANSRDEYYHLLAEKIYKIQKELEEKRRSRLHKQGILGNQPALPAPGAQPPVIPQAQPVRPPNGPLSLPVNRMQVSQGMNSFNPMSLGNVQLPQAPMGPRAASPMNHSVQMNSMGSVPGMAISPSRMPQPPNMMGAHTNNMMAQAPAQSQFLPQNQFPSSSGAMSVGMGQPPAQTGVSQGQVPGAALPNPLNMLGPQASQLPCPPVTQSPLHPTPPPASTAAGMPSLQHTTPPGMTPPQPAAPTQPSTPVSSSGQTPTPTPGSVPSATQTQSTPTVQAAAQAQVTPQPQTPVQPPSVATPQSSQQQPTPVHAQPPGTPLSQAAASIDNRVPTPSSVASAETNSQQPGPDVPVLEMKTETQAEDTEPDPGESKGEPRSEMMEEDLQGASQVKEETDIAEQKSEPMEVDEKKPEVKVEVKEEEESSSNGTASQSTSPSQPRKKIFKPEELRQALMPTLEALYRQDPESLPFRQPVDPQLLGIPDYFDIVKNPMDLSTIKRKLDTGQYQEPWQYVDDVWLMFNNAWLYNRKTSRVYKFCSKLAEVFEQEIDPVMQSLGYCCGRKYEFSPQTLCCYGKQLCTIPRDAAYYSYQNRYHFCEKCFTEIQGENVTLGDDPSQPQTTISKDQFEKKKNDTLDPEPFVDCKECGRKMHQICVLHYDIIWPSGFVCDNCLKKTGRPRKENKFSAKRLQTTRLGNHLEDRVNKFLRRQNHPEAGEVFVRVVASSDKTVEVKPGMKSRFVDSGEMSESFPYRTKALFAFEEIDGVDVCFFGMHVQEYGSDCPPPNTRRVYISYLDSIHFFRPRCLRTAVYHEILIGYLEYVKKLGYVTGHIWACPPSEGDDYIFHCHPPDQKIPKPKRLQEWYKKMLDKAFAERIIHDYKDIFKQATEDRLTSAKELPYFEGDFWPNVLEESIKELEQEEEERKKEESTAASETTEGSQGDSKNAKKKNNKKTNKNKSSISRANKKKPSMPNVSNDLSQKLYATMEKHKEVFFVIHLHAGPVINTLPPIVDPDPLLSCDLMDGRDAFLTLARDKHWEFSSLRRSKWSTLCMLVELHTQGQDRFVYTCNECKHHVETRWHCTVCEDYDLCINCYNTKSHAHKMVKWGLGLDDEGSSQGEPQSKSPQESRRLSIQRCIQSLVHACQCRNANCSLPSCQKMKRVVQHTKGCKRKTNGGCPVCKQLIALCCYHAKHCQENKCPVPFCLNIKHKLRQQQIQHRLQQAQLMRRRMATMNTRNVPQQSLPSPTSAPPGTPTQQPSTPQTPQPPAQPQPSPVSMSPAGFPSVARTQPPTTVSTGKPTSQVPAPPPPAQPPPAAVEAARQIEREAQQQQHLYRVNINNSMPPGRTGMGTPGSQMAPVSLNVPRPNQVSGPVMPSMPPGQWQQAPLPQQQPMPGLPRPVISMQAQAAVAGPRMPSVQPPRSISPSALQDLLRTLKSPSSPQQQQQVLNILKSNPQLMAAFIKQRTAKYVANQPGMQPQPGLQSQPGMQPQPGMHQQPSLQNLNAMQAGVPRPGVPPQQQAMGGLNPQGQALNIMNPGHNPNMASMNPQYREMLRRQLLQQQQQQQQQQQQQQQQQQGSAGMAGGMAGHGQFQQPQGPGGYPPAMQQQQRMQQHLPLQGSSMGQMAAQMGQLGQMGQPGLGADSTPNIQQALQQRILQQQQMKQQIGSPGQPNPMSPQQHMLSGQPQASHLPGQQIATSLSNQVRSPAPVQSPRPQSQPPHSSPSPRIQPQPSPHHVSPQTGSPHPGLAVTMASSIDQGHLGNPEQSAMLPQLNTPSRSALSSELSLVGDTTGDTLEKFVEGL

PBMC [3] = test: Inhibition of IL-6 production in LPS-induced human PBMC preincubated for 1 hr followed by LPS-stimulation and measured after 20 hrs by magnetic beads technique based assay; type: functional, tissue-based; details: time 21.0 hrs
PBMC [4] = test: Inhibition of MCP-1 production in LPS-induced human PBMC preincubated for 1 hr followed by LPS-stimulation and measured after 20 hrs by magnetic beads technique based assay; type: functional, tissue-based; details: time 21.0 hrs
[5] = target: T2, Bromodomain-containing protein 4 (Homo sapiens, UniProt O60885); test: Inhibition of BRD4 in human PBMC assessed as reduction in LPS-induced TNFalpha secretion preincubated for 1 hr followed by LPS-stimulation and measured after 20 hrs by magnetic beads technique based assay
[6] = target: T2, Bromodomain-containing protein 4; test: Inhibition of BRD4-BD1 (unknown origin) by TR-FRET assay
[7] = target: T3, Mitogen-activated protein kinase 7 (Homo sapiens, UniProt Q13164); test: Inhibition of recombinant human ERK5 using myelin basic protein as substrate by [gamm33P]ATP based HotSpot radiometric assay
T3 sequence (Q13164 whole entry): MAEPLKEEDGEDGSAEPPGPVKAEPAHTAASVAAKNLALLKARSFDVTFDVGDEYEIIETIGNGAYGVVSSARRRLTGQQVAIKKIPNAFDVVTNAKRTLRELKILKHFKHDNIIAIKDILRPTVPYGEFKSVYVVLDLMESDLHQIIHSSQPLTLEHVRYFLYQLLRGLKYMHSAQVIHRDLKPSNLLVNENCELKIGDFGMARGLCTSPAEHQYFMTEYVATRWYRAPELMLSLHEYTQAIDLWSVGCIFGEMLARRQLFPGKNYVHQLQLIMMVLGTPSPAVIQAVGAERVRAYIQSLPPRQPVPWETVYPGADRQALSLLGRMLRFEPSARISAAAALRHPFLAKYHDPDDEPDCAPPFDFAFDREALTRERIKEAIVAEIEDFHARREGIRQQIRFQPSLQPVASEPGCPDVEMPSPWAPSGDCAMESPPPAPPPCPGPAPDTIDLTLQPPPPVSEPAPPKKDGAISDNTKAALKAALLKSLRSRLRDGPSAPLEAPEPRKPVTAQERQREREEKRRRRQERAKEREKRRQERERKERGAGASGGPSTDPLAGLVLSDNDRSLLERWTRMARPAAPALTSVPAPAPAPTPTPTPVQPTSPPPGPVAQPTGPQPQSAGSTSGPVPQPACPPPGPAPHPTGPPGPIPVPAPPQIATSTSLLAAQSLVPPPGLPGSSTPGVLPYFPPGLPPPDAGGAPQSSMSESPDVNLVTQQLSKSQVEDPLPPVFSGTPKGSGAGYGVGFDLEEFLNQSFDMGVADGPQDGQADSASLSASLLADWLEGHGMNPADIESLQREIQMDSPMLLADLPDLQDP

[8] = target: T4, Voltage-gated inwardly rectifying potassium channel KCNH2 (Homo sapiens, UniProt Q12809); test: Inhibition of human ERG stably expressed in CHO cells at holding potential of -80 mV incubated for 12 mins
T4 sequence (Q12809 whole entry): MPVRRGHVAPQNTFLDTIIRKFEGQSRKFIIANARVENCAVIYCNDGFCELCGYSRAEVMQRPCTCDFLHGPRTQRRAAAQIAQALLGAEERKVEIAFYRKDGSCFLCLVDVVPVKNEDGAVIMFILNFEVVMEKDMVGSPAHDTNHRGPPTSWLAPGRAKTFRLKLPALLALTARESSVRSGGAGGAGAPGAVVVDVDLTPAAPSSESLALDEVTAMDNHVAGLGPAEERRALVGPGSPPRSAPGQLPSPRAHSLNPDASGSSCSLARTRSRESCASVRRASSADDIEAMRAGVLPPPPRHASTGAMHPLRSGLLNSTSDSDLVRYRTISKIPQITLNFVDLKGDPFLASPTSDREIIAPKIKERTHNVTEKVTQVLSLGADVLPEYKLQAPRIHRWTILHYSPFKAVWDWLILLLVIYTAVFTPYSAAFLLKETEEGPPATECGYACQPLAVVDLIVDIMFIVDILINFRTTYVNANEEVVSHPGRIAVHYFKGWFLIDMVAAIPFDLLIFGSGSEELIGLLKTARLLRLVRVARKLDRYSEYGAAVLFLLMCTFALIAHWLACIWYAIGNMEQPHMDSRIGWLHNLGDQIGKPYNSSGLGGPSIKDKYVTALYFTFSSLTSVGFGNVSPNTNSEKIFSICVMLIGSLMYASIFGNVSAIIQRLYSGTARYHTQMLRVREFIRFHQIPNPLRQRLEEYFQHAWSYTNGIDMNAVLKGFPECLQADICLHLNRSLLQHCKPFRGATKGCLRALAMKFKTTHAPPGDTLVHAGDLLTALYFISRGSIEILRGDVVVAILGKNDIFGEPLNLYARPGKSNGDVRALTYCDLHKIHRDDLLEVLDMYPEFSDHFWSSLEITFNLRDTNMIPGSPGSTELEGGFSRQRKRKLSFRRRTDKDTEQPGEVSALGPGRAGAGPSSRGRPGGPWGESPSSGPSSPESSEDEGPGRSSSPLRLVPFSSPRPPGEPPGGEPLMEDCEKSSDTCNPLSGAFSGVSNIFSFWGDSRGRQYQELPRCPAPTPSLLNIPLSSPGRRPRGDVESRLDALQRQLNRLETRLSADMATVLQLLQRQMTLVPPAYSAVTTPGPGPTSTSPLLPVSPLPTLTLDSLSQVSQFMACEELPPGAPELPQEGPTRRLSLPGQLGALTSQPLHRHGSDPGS

[9] = Stability of compound in human liver microsomes assessed as parent compound remaining after 1 hr
[10] = target: T2, Bromodomain-containing protein 4; test: Binding affinity to BRD4-BD1 (unknown origin)
[11] = target: T4, Voltage-gated inwardly rectifying potassium channel KCNH2; test: Inhibition of human ERG
[12] = Dissociation constant, pKa of compound; type: physicochemical
[13] = target: T3, Mitogen-activated protein kinase 7; test: Inhibition of ERK5 (unknown origin)
[14] = target: T2, Bromodomain-containing protein 4; test: Inhibition of BRD4-BD1 (unknown origin)

## CCNC(=O)C[C@@H]1N=C(c2ccc(Cl)cc2)c2cc(OC)ccc2-n2c(C)nnc21 [MOLIBRESIB]
[1]
  Kd: 0.06 µM
[2]
  Kd: 0.112 µM
CREB-binding protein
  Kd: 83 µM
PBMC [3]
  inhibition: Active
PBMC [4]
  inhibition: Active

## CCO[C@@H]1CCCC[C@@H]1Nc1cc2c(cn1)N(C)C(=O)c1ccccc1N2C (relative stereo)
[5]
  EC50: 2.95 µM
PBMC [3]
  inhibition: Active
[6]
  IC50: 15.4 µM
[7]
  IC50: > 10 µM
PBMC [4]
  inhibition: Active

## CN1C(=O)c2ccccc2Sc2cc(N[C@H]3CC[C@H](O)CC3)ncc21
PBMC [3]
  inhibition: Active
[6]
  IC50: > 30 µM
PBMC [4]
  inhibition: Active

## CN1C(=O)c2cccc(Cl)c2Oc2cc(N[C@H]3CC[C@H](O)CC3)ncc21
[8]
  IC50: > 10 µM
[5]
  EC50: 1.17 µM
PBMC [3]
  inhibition: Active
[6]
  IC50: 12.8 µM
[7]
  IC50: 1.05 µM
PBMC [4]
  inhibition: Active
[9]
  remaining at 1 h: 103%

## CN1C(=O)c2cccc(F)c2Oc2cc(N[C@H]3CC[C@H](O)CC3)ncc21
[8]
  IC50: > 10 µM
[5]
  EC50: 1.72 µM
PBMC [3]
  inhibition: Active
[6]
  IC50: 11.2 µM
[7]
  IC50: 0.393 µM
PBMC [4]
  inhibition: Active
[9]
  remaining at 1 h: 114%

## CN1C(=O)c2ccccc2N(C)c2cc(N[C@H]3CC[C@@H](O)CC3)ncc21
[5]
  EC50: 3.07 µM
PBMC [3]
  inhibition: Active
[6]
  IC50: 6.91 µM
[7]
  IC50: 2.23 µM
PBMC [4]
  inhibition: Active

## CCOc1cc(C(=O)N2CCC(N3CCCC3)CC2)ccc1Nc1cc2c(cn1)N(C)C(=O)c1ccccc1N2C
[10]
  Kd: 0.022 µM
[11]
  IC50: 0.32 µM
[12]
  pKa: 9.7
[13]
  IC50: 0.011 µM
PBMC [3]
  inhibition: Active
PBMC [4]
  inhibition: Active
[14]
  IC50: 1.29 µM

## CN1C(=O)c2ccccc2Oc2cc(N[C@H]3CC[C@H](O)CC3)ncc21
[8]
  IC50: > 10 µM
[5]
  EC50: 2.7 µM
PBMC [3]
  inhibition: Active
[6]
  IC50: 9.37 µM
[7]
  IC50: 0.266 µM
PBMC [4]
  inhibition: Active
[9]
  remaining at 1 h: 97%
